In patent US10100058B2, “Fused heterocyclic compounds as CaM kinase inhibitors” (Gilead Sciences, Inc., priority 2016, dated 2018):

biological target: recombinant CaMKIIδ (Homo sapiens (Human), UniProt Q13557); assay: CaMKIIδ biochemical assay (HTRF); settings: 10 pM CaMKIIδ, 110 nM calmodulin, 12 μM ATP, 1 hour; read-out: CAMKIID-HTRF-384V2 (IC50 - nM)
Method: CaMKIIδ Biochemical Assay
The biochemical activity of recombinant CaMKIIδ was measured by monitoring the phosphorylation of a target peptide using Homogenous Time Resolved Fluorescence (HTRF) technology from CisBio Bioassays.

SMILES | IC50
CCN1CCC[C@H]1CNC(=O)c1cc(-c2cnn3ccc(-c4cccs4)nc23)nc(N2CC(OC)C2)c1 [Example 256, (S)—N-((1-ethylpyrrolidin-2-yl)methyl)-2-(3-methoxyazetidin-1-yl)-6-(5-(thiophen-2-yl)pyrazolo[1,5-a]pyrimidin-3-yl)isonicotinamide] | 2.42 nM
COC1CN(c2cc(C(=O)NC[C@@H]3CCCN3C)cc(-c3cnn4ccc(-c5cccs5)nc34)n2)C1 [Example 257, (S)-2-(3-methoxyazetidin-1-yl)-N-((1-methylpyrrolidin-2-yl)methyl)-6-(5-(thiophen-2-yl)pyrazolo[1,5-a]pyrimidin-3-yl)isonicotinamide] | 284 nM
CCN(CC)CCNC(=O)c1cc(-c2cnn3ccc(-c4cccs4)nc23)nc(N2CC(C)(O)C2)c1 [Example 258, N-(2-(diethylamino)ethyl)-2-(3-hydroxy-3-methylazetidin-1-yl)-6-(5-(thiophen-2-yl)pyrazolo[1,5-a]pyrimidin-3-yl)isonicotinamide] | 1.07 nM
CCN(CC)CCNC(=O)c1cc(NCCO)nc(-c2cnn3ccc(-c4cccs4)nc23)c1 [Example 259, N-(2-(diethylamino)ethyl)-2-((2-hydroxyethyl)amino)-6-(5-(thiophen-2-yl)pyrazolo[1,5-a]pyrimidin-3-yl)isonicotinamide] | 1.02 nM
CCN(CC)c1cc(C(=O)NC[C@H](C)N(CC)CC)cc(-c2cnn3ccc(-c4cccs4)nc23)n1 [Example 260, (S)-2-(diethylamino)-N-(2-(diethylamino)propyl)-6-(5-(thiophen-2-yl)pyrazolo[1,5-a]pyrimidin-3-yl)isonicotinamide] | 1.71 nM
CCNc1cc(C(=O)NC[C@H](C)N(CC)CC)cc(-c2cnn3ccc(-c4cccs4)nc23)n1 [Example 261, (S)—N-(2-(diethylamino)propyl)-2-(ethylamino)-6-(5-(thiophen-2-yl)pyrazolo[1,5-a]pyrimidin-3-yl)isonicotinamide] | 0.54 nM
CCN(CC)[C@@H](C)CNC(=O)c1cc(-c2cnn3ccc(-c4ccncc4)nc23)nc(N2CC(OC)C2)c1 [Example 262, (S)—N-(2-(diethylamino)propyl)-2-(3-methoxyazetidin-1-yl)-6-(5-(pyridin-4-yl)pyrazolo[1,5-a]pyrimidin-3-yl)isonicotinamide] | 6.97 nM
CCN(CC)[C@@H](C)CNC(=O)c1cc(-c2cnn3ccc(-c4cccs4)nc23)nc(N2CCC(C(N)=O)CC2)c1 [Example 263, (S)-2-(4-carbamoylpiperidin-1-yl)-N-(2-(diethylamino)propyl)-6-(5-(thiophen-2-yl)pyrazolo[1,5-a]pyrimidin-3-yl)isonicotinamide] | 0.51 nM
CCN(CC)[C@@H](C)CNC(=O)c1cc(-c2cnn3ccc(-c4cccs4)nc23)nc(N2CCO[C@H](CO)C2)c1 [Example 264, N—((S)-2-(diethylamino)propyl)-2-((S)-2-(hydroxymethyl)morpholino)-6-(5-(thiophen-2-yl)pyrazolo[1,5-a]pyrimidin-3-yl)isonicotinamide] | 0.2 nM
CCN(CC)[C@@H](C)CNC(=O)c1cc(-c2cnn3ccc(-c4cccs4)nc23)nc(N2CC[C@H]2COC)c1 [Example 265, N—((S)-2-(diethylamino)propyl)-2-((S)-2-(methoxymethyl)azetidin-1-yl)-6-(5-(thiophen-2-yl)pyrazolo[1,5-a]pyrimidin-3-yl)isonicotinamide] | 0.42 nM
CCN(CC)[C@@H](C)CNC(=O)c1cc(-c2cnn3ccc(-c4cccs4)nc23)nc(N2CC[C@@H]2COC)c1 [Example 266, N—((S)-2-(diethylamino)propyl)-2-((R)-2-(methoxymethyl)azetidin-1-yl)-6-(5-(thiophen-2-yl)pyrazolo[1,5-a]pyrimidin-3-yl)isonicotinamide] | 0.46 nM
CCN(CC)[C@@H](C)CNC(=O)c1cc(-c2cnn3ccc(-c4cccs4)nc23)nc(N2CC[C@@H]2CO)c1 [Example 267, N—((S)-2-(diethylamino)propyl)-2-((R)-2-(hydroxymethyl)azetidin-1-yl)-6-(5-(thiophen-2-yl)pyrazolo[1,5-a]pyrimidin-3-yl)isonicotinamide] | 0.28 nM
